Source: paper PMC4669722, “Antitumour potential of BPT: a dual inhibitor of cdk4 and tubulin polymerization” (Cell Death & Disease, 2015)
“Also recorded” adds a separate entry of the source.

Tests used:
[1] = test system: MiaPaCa (pancreatic; p53His273mut, pRb+); assay: Cell proliferation (MTT) assay, MiaPaCa; type: cell-based; conditions: Homo sapiens, MIA PaCa-2, 48 h, read-out: IC50 cell growth inhibition, MiaPaCa
Experimental: (§1) All 10 human cancer cell lines were maintained at 37 °C in 5% CO2 in RPMI-1640 medium, supplemented with 10% foetal calf serum and 100 μg/ml normocin. The 10 cancer cell lines used for screening were all obtained from ATCC (Manassas, VA, USA); they were the NSCLC (a form of cancer that is resistant to chemotherapy) lines: NCI-H460 (pRb^+, p53^+), A549 (pRb^+, p53^+), Calu-1 (pRb^+, p53-null), NCI-H1299 (pRb^+, p53-null), NCI-H358 (pRb-null, p53-null); the colon cancer line LS174T (pRb^+, p53^+); the prostate cancer line PC-3 (pRb^+, p53-null); the pancreatic cancer line MiaPaca (pRb^+, p53-mutant). The genotypes within brackets indicate the status of the tumour suppressor proteins pRb and p53. The mouse embryonic normal hepatic cell line (BNL CL2) and its SV40 large T-antigen-transformed counterpart cell line (BNL SV A.8) were also purchased from ATCC. The large T-antigen inactivates the tumour suppressor proteins p53 and pRb. The detailed procedure of cell proliferation (MTT) assay and IC50 determination was described previously.[32]

Plk3 = Plk3 (Homo sapiens, UniProt Q9H4B4); assay: Kinase profiling (Millipore), Plk3; type: biochemical
Experimental: (§2) The in vitro kinase assays for testing against Cdk4-cyclin D1, Cdk2-cyclin A, Cdk1-cyclin B1 and Cdk9-cyclin T1 were performed in-house. The methodology and results have been reported previously.[20], [30], [31], [32], [45] The kinase profiling for 58 representative kinases was carrried out commercially at Millipore Bioscience Division, Livingston, UK.

pBluescript plasmid DNA = assay: EtBr displacement assay; type: binding; conditions: 1.3 μM EtBr, pH 7.4
Experimental: The assays were performed in a 96-well plate with clear bottom (Costar, Washington, DC, USA). The assay involved the addition of 10 μl of 10 × concentrated stock solution of compounds (dissolved in DMSO and further diluted in EtBr displacement assay buffer) to 90 μl of reaction mixture containing 6 μg of purified pBlueScript DNA and 1.3 μM EtBr in EtBr displacement assay buffer with final pH 7.4. Equivalent amounts of DMSO were added to the vehicle controls. In addition to control samples (DNA+EtBr), test samples (DNA+EtBr+test compounds), blank 1 (EtBr only), blank 2 (DNA only), wells containing DNA and compound were also prepared to test any change in the background fluorescence readings. The reduction in relative fluorescence counts was monitored ([…]) and recorded after 1 min equilibration time. Fascaplysin and actinomycin D, which are known to intercalate d-s DNA, were used as standard compounds in assay. The mean control and test readings were corrected by subtracting blank readings. The percentage fluorescence in the test samples in reaction with control samples was calculated by using following formula: […]

[2] = test system: panel of 58 representative kinases; assay: Kinase profiling, panel of 58 representative kinases; type: biochemical; conditions: at 10 μM
Experimental: as §2

[3] = test system: BNL SV A.8 (SV40-mediated transformed mouse embryonic hepatic cell line); assay: Long-term cell survival assay, BNL SV A.8; type: cell-based; conditions: BNL SV A.8, 12 days
Experimental: Fig. S3: Long term survival of Mouse embryonic normal hepatic cell line (BNL CL2) and SV40 mediated transformed mouse embryonic hepatic cell line (BNL SV A.8) after the treatment with BPT. The cells were treated with the diffrent concentrations of BPT and then incubated in drug free medium for 12 days. the colonies were fixed in methanol : acetic acid (2: 1) and stained with 1% crystal violet and representative plates were scanned using the gel documentation system .

A549 and Calu-1 cells = assay: Colony formation (clonogenic) assay, A549 and Calu-1; type: cell-based, human; conditions: p53+ A549 and p53-null Calu-1, 12-day experiment
Experimental: A549 and Calu-1 cells were plated at a concentration of 500 cells per well in 35 mm/6-well plates in 2 ml complete medium. The plates were incubated for 24 h stabilization and further incubated with a range of concentrations of fascaplysin and BPT for 24 h. Plates were then gently washed with PBS, replaced with fresh medium and incubated at 37 °C. After 10–12 days, cells were fixed in methanol:acetic acid (2 : 1) fixative for 10 min, washed, air dried and stained with 1% crystal violet. The colonies were evaluated by visual counts. The number of colonies in treated cultures was expressed as a percentage of the control cultures. All results represent means and standard deviations from at least three independent experiments.

[4] = test system: NCI-H1299 (NSCLC; p53 null, pRb+); assay: Cell proliferation (MTT) assay, NCI-H1299; type: cell-based; conditions: Homo sapiens, 48 h, read-out: IC50 cell growth inhibition, NCI-H1299
Experimental: as §1

[5] = test system: LS174T (colorectal carcinoma; p53+, pRb+); assay: Cell proliferation (MTT) assay, LS174T; type: cell-based; conditions: Homo sapiens, 48 h, read-out: IC50 cell growth inhibition, LS174T
Experimental: as §1

PKCα = PKCα (Homo sapiens, UniProt P17252); assay: Kinase profiling (Millipore), PKCα; type: biochemical
Experimental: as §2

[6] = test system: BNL SV A.8 (mouse embryonic SV40-transformed hepatic cells); assay: Flow cytometric cell cycle analysis, BNL SV A.8; type: cell-based; conditions: 48 h
Experimental: The untreated (control) and treated (with test compounds) cells were harvested by trypsinization, washed once with PBS and then fixed in 70% chilled (−20 °C) ethanol for minimum 1 h. After the fixation step, cells were centrifuged for 5 min at 3000 × g at room temperature, and the pellet was suspended in PBS containing 50 μg/ml propidium iodide (Sigma-Aldrich, Dorset, UK; cat. no. P-4170) and 0.5 mg/ml DNase-free ribonuclease (Sigma-Aldrich; cat. no. R-5503). The cells were stained for 1 h in the dark at 4 °C. Cell cycle analysis was performed on the Beckman Coulter (Epics Altra) fluorescence-activated cell sorter (Beckman Coulter UK Ltd, Buckinghamshire, UK). To gate all the events that represent single cells, and not cell doublets or cell clumps, the following analyses were performed on the samples. Cytograms of propidium iodide fluorescence peak signal versus integrated fluorescence or the linear signal were plotted. All data points on the straight line were isolated in a single gate and the gated data was further used for plotting a histogram that represents a complete cell cycle. The total number of events was not allowed to exceed 200 events per s. Data acquisition was stopped after a minimum of 10 000 events had been collected.

Cdk2-cyclin A = Cdk2-cyclin A (Homo sapiens, UniProt P24941); assay: In vitro kinase assay, Cdk2-cyclin A (in-house); type: biochemical; conditions: three independent experiments; read-out: IC50 (mean±S.D.), Cdk2-cyclin A
Experimental: as §2

EGFR = EGFR (Homo sapiens, UniProt P00533); assay: Kinase profiling (Millipore), EGFR; type: biochemical
Experimental: as §2

Sequence of EGFR (P00533 25-1210): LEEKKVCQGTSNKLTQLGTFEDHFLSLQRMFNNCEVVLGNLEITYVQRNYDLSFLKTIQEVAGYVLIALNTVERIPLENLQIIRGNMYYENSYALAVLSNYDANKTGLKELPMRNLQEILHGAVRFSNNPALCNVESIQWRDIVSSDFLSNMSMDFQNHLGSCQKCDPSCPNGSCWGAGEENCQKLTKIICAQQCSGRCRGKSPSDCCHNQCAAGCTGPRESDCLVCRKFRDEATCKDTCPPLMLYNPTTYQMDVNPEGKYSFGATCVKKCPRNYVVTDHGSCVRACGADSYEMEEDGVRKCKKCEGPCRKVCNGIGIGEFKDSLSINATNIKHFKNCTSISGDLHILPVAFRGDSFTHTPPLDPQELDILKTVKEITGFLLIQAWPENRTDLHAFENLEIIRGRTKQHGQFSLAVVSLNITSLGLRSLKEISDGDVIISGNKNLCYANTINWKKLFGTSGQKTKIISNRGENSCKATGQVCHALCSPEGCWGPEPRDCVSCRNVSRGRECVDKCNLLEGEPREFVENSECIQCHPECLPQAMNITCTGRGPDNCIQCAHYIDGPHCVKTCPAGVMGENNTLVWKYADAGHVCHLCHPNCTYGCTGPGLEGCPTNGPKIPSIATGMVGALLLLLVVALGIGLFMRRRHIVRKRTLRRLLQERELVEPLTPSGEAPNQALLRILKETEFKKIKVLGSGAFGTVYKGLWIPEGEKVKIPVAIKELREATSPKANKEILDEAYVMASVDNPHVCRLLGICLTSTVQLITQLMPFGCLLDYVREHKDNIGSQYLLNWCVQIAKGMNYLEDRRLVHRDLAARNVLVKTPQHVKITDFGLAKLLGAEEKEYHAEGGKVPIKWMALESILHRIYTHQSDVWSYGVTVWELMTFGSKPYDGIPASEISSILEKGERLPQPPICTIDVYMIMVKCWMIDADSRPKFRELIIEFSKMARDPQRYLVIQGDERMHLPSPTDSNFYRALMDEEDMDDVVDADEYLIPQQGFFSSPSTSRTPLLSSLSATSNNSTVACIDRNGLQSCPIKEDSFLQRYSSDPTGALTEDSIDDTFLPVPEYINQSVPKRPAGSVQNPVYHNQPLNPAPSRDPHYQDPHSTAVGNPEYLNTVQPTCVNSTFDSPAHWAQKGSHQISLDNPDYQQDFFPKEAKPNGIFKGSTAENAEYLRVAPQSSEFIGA
Sequence of Plk3 (Q9H4B4 whole entry): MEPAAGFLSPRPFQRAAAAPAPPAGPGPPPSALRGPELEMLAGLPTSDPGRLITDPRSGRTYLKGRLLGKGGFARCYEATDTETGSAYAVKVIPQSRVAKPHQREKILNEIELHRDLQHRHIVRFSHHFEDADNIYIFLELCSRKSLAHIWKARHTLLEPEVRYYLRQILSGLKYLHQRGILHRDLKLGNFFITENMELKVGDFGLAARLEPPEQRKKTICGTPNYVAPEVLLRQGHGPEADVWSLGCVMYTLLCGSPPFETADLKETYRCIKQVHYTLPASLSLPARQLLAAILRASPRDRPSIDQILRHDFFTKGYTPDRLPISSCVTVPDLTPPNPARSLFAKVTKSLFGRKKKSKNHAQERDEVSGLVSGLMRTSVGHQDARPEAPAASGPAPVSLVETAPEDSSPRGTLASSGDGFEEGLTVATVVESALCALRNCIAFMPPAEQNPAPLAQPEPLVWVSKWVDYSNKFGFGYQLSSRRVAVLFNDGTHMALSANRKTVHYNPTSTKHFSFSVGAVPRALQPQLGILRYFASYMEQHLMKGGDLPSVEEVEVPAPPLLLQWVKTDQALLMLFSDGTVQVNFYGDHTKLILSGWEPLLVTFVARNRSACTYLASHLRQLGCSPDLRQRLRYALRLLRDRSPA

O=C(c1ccccc1-c1ccccc1)N1CCc2c([nH]c3ccccc23)C1 [BPT, 2-(biphenyl-2-carbonyl)-2,3,4,9-tetrahydro-1H-pyrido[3,4-b]indole]
IC50 [1]: 800 nM | IC50 (Plk3): > 10000 nM | EtBr displacement from DNA (pBluescript plasmid DNA): incapable of displacing; also recorded: does not displace ethidium bromide; also recorded: No EtBr displacement up to 100 μM ^a | inhibition of other kinases (panel of 58) [2]: no inhibition against other kinases; also recorded: does not inhibit any kinase to any appreciable degree | number of colonies, long-term survival [3]: selectively reduces the number of colonies | colony formation efficiency (A549 and Calu-1 cells): significant reduction | IC50 [4]: 900 nM | IC50 [5]: 850 nM | IC50 (PKCα): > 10000 nM | cells in Sub G1 (apoptosis) ([6]; BNL SV A.8, IC50 concentration): 43% | cells in Sub G1 (apoptosis) ([6]; BNL SV A.8, IC70 concentration): 51% | IC50 (Cdk2-cyclin A): 831000 ± 15500 nM | IC50 (EGFR): > 10000 nM
